The source of these data is patent US20140335050A1, “METHODS, COMPOSITIONS, AND KITS FOR THE TREATMENT OF CANCER” (The General Hospital Corporation, priority 2011, published 2014).

Type in all cases: cell-based, human
One assay has as its system A375 tumor cells. Briefly: Western blot (BRAF, phosphorylated MEK and ERK). Here is the method:
FIG. 17 is a series of Western blots that show changes in protein levels and state of phosphorylation after treatment with an Hsp90 inhibitor. A primary Anti BRAF (H145) antibody was used at a 1:5000 dilution. A secondary Goat anti rabbit antibody was used at a dilution of 1:5000. 30 ug total protein was added to each well.
Cell lysates were prepared using RIPA buffer from Santa Cruz (Santa Cruz, Calif.) containing protease and phosphatase inhibitors. Protein concentrations were determined using Bradford assay from BioRad (Hercules, Calif.). Equal amounts of protein were loaded in each well for PAGE analysis. Proteins were transferred to PVDF membranes from Pierce Biotechnology (Rockford, Ill.). Blocking and both primary and secondary antibody incubations were performed using Starting Block from Pierce (Rockford, Ill.). Blots were washed with 1×TBS with 0.5% tween 20. Primary antibodies used BRAF H-145 and TRP-2 from Santa Cruz (Santa Cruz, Calif.), and Phos ERK from Cell Signaling Technologies (Danvers, Mass.) beta actin from Sigma (St. Louis, Mo.). Goat anti-rabbit HRP conjugated secondary antibody was purchased from Pierce (Rockford, Ill.). Chemiluminesce was performed using the Femto kit form Pierce (Rockford, Ill.). […] Sizes of proteins were determined by comparison to the Broad prestained protein standard ladder from BioRad (Hercules, Calif.).
On the technique in general: A western blot detects proteins with antibodies after separation by electrophoresis.

For assay [1], the system named is Jurkat T cell lymphoma cells. Briefly: Surface antibody staining and flow cytometry (MHC Class I/II). Here is the method: (§1) Intracellular staining and flow cytometric analyses of cytoplasmic Melan-A/MART-1, and gp100 expression were performed as described previously. Cells were fixed with 1% formaldehyde, permeabilized with 0.1% saponin, stained with monoclonal antibodies to melanocyte antigens. Antibodies were obtained with specificity for: Melan-A/MART-1 from Vector Labs (Burlingame, Calif.); gp100/HMB45 from DakoCytomation (Carpinteria, Calif.) and then visualized with goat anti-mouse FITC-conjugated secondary antibody from Invitrogen (Frederick, Md.). The level of EGFP was determined by flow cytometry of unfixed cells washed and resuspended in 1×PBS. Surface staining of MHC Class I was carried out using the antibody W6/32 on cells harvested with Cell Stripper from MediaTech Inc. (Manassas, Va.) and carried out on ice.
(§2) For surface staining of HLA Class I and II antigens, cells were harvested using CellStripper™ from Mediatech (Manassas, Va.). All staining steps were performed on ice. Following a first incubation with antibody to Class I (W6/32) or Class II (L243) for 30 minutes. Stained cells were washed twice with cold PBS and then stained with a goat anti-mouse FITC secondary antibody to allow for quantitative analysis by flow cytometry. For evaluation of cytoplasmic antigens, including Melan-A/MART-1 and gp100, cells were first fixed in paraformaldehyde and permeabilized with saponin as previously described. Staining for cytoplasmic antigens was carried out at room temperature (22° C.).

Assay [2] concerns EBV-19 B cell lymphoma cells. Described as above. Conditions: three days, IFN-β 5000 Units/ml. Here is the method: as §1, §2
The test system of a further assay is U2-OS osteosarcoma cells. Described as above. The gist of the method: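 Cells pre-treated 4 days with IFN-beta, then re-plated for 3-day treatments. Harvested non-enzymatically and stained on ice for 30 min with W6/32 (Class I) or L243 (Class II), then FITC goat anti-mouse secondary; surface levels quantified by flow cytometry.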
Where [3] appears, read: U2-OS cells, Table 20, single agent or simultaneous combination.
The mark [4] stands for this setting: U2-OS, three days, IFN-β 5000 Units/ml, IFN-γ 100 ng/ml, PU-H71 0.3 mg/ml.

Molecules are shown by their SMILES.

Take `CO[C@H]1/C=C\C=C(/C)C(=O)NC2=CC(=O)C(NCCN3CCCC3)=C(C[C@@H](C)C[C@H](OC)[C@H](O)[C@@H](C)/C=C(\C)[C@@H]1OC(N)=O)C2=O` [17-AEP]: the “BRAF protein level (Western blot)” value in the assay on A375 tumor cells (3 days) was “reduces levels of BRAF”. Moreover, the “Phosphorylated MEK and Phosphorylated ERK levels (Western blot)” value in the assay with A375 tumor cells (3 days (FIG. 17)) was “decreased levels”.
Consider `CC(C)NCCCn1c(Sc2cc3c(cc2I)OCO3)nc2c(N)ncnc21` [PU-H71], for which the “L243 (MHC Class II surface staining)” value turned out to be 1.2 in assay [1] (single agent); 1.9 in the assay with U2-OS osteosarcoma cells (setting [3]); 1.8 in the assay on U2-OS osteosarcoma cells (U2-OS, single agent). Also, the “MHC Class I, geometric mean of surface staining (W6/32)” value in assay [1] (three days, IFN-β 5000 Units/ml, IFN-γ 100 ng/ml, PU-H71 0.3 μg/ml) is 24; in assay [1] (three days, IFN-β 5000 Units/ml, PU-H71 0.075-0.3 μg/ml), 41; in assay [2] (IFN-γ 100 ng/ml, PU-H71 0.3), 124; in assay [2] (PU-H71 0.075-0.3) it was 119; with U2-OS osteosarcoma cells (setting [4]), 87; in the assay with U2-OS osteosarcoma cells (U2-OS, three days, IFN-β 5000 Units/ml, PU-H71 0.075-0.3 mg/ml) it was 108. The “MHC Class II, geometric mean of surface staining (L2443)” value was 1 in assay [1] (three days, IFN-β 5000 Units/ml, IFN-γ 100 ng/ml, PU-H71 0.3 mg/ml); 114 in assay [2] (IFN-γ 100 ng/ml, PU-H71 0.3 mg/ml); 4 with U2-OS osteosarcoma cells (setting [4]). Also, in the assay on U2-OS osteosarcoma cells (setting [3]), the “W6/32 (MHC Class I surface staining)” value is recorded as 109.0. Further, in the assay with U2-OS osteosarcoma cells (U2-OS, PU-H71 in combination with interferons), the “Class I induction, combination” value is “highest levels are achieved”. Moreover, in the assay on U2-OS osteosarcoma cells (U2-OS, PU-H71 together with IFN-gamma), the “Class II antigen induction seen with IFN-gamma, combination” value was “prevented”.
